# Test results from patent US7323447B2, “Hepatitis C virus inhibitors” (Bristol-Myers Squibb Company, priority 2005, dated 2008).
# Target: T1, HCV NS3/4A protease complex (J4L6S strain) (Hepatitis C virus genotype 1b, UniProt O92972, C1454S/C1711G)
# T1 construct: DNA encoding the recombinant HCV NS3/4A protease complex (amino acids 1027 to 1711) for these strains; inferred from pET21b vector and Ni-NTA purification; made in house; host or cells: Escherichia coli BL21 (DE3), pET21b
# Assay: FRET peptide assay to monitor HCV NS3/4A proteolytic activity, J4L6S strain
# Format: biochemical
# Text: HCV NS3 protease complexes, derived from the BMS strain, H77 strain or J4L6S strain, were generated, as described below. These purified recombinant proteins were generated for use in a homogeneous assay (see below) to provide an indication of how effective compounds of the present disclosure would be in inhibiting HCV NS3 proteolytic activity.
# The H77 and J4L6S strains were used for production of recombinant NS3/4A protease complexes. DNA encoding the recombinant HCV NS3/4A protease complex (amino acids 1027 to 1711) for these strains was manipulated as described by P. Gallinari et al. (see Gallinari P, Paolini C, Brennan D, Nardi C, Steinkuhler C, De Francesco R. Biochemistry. 38(17):5620-32, (1999)). Briefly, a three-lysine solubilizing tail was added at the 3′-end of the NS4A coding region. The cysteine in the P1 position of the NS4A-NS4B cleavage site (amino acid 1711) was changed to a glycine to avoid the proteolytic cleavage of the lysine tag. Furthermore, a cysteine to serine mutation was introduced by PCR at amino acid position 1454 to prevent the autolytic cleavage in the NS3 helicase domain. […]
# T1 sequence (O92972 1027-1711 C1454S/C1711G, one chain of several): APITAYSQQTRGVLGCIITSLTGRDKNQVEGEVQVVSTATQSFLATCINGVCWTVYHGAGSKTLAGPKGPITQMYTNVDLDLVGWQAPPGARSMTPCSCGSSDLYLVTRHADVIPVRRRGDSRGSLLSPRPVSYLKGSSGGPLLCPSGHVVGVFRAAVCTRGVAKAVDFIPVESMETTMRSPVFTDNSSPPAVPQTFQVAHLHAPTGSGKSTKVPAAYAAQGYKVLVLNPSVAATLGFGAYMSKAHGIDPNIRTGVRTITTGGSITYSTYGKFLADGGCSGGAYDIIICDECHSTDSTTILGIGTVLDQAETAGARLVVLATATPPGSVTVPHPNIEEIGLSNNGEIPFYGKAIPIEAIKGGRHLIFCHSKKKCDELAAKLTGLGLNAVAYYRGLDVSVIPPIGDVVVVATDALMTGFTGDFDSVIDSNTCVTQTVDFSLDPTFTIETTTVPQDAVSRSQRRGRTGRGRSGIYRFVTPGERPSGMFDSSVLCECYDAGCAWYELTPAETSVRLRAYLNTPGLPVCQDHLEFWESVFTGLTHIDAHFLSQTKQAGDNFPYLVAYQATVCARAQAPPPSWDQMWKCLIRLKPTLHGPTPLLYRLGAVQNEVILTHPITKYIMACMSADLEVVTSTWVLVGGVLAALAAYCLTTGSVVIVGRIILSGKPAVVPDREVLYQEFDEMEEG
smiles,measurement,value
C=C[C@@H]1C[C@]1(NC(=O)[C@@H]1C[C@@H](OC(=O)N2Cc3cccc(F)c3C2)CN1C(=O)[C@@H](OC(=O)NC(C)(C)C)C(C)(C)C)C(=O)NS(=O)(=O)C1CC1 [Example 56Compound 56],IC50,9.8 nM
